PubChem BioAssay AID248 (DTP/NCI, 2004)
Several values for one entry are separate records, joined by “and”; a condition that tells them apart may be missing. Identical values can stand only once. Toxic doses and inconclusive results are not listed.

Tested on: L1210 leukemia ip in BDF1 mice, survival T/C
Test: NCI In Vivo Anticancer Drug Screen. Data for tumor model L1210 Leukemia (intraperitoneal) in B6D2F1 (BDF1) mice
Conditions: endpoint: mean survival time, higher = longer survival
In short: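 Mice bearing the transplanted tumor received compound or vehicle. Survival of the treated group was divided by that of the vehicle-treated control group to give the ratio.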

CCN(CC)CCNc1ccc(C)c2sc3ccccc3c(=O)c12
T/C (dose: 6.25 mg/kg/injection, schedule: Q01DX009 (ip), vehicle: saline): 117 % of control and 118 % of control
T/C (dose: 8.08 mg/kg/injection, schedule: Q01DX Z (ip), vehicle: carboxymethylcellulose (CMC)): 96 % of control
T/C (dose: 10.0 mg/kg/injection, schedule: Q01DX Z (ip), vehicle: other): 95 % of control
T/C (dose: 12.0 mg/kg/injection, schedule: Q01DX006 (iv), vehicle: saline): 98 % of control
T/C (dose: 12.0 mg/kg/injection, schedule: Q01DX Z (im), vehicle: saline): 98 % of control
T/C (dose: 12.0 mg/kg/injection, schedule: Q01DX Z (ip), vehicle: saline): 101 % of control
T/C (dose: 12.0 mg/kg/injection, schedule: Q01DX Z (sc), vehicle: saline): 98 % of control
T/C (dose: 12.5 mg/kg/injection, schedule: Q01DX005 (ip), vehicle: Klucel (hydroxypropylcellulose) (HPC)): 96 % of control and 97 % of control
T/C (dose: 12.5 mg/kg/injection, schedule: Q01DX005 (ip), vehicle: water): 101 % of control
T/C (dose: 13.0 mg/kg/injection, schedule: Q01DX Z (oral), vehicle: carboxymethylcellulose (CMC)): 122 % of control
T/C (dose: 16.17 mg/kg/injection, schedule: Q01DX Z (ip), vehicle: carboxymethylcellulose (CMC)): 104 % of control
T/C (dose: 18.0 mg/kg/injection, schedule: Q01DX Z (ip), vehicle: carboxymethylcellulose (CMC)): 98 % of control
T/C (dose: 18.0 mg/kg/injection, schedule: Q01DX Z (ip), vehicle: methylcellulose (MC)): 107 % of control
T/C (dose: 20.0 mg/kg/injection, schedule: Q01DX Z (ip), vehicle: carboxymethylcellulose (CMC)): 100 % of control and 109 % of control
T/C (dose: 20.0 mg/kg/injection, schedule: Q01DX Z (oral), vehicle: carboxymethylcellulose (CMC)): 112 % of control
T/C (dose: 24.0 mg/kg/injection, schedule: Q01DX Z (im), vehicle: saline): 103 % of control
T/C (dose: 24.0 mg/kg/injection, schedule: Q01DX Z (ip), vehicle: saline): 101 % of control
T/C (dose: 24.0 mg/kg/injection, schedule: Q01DX Z (sc), vehicle: saline): 98 % of control
T/C (dose: 25.0 mg/kg/injection, schedule: Q01DX005 (ip), vehicle: Klucel (hydroxypropylcellulose) (HPC)): 103 % of control and 105 % of control
T/C (dose: 25.0 mg/kg/injection, schedule: Q01DX005 (ip), vehicle: water): 112 % of control
T/C (dose: 25.0 mg/kg/injection, schedule: Q01DX010 (ip), vehicle: saline): 103 % of control and 113 % of control
T/C (dose: 25.0 mg/kg/injection, schedule: Q01DX Z (ip), vehicle: carboxymethylcellulose (CMC)): 109 % of control
T/C (dose: 25.0 mg/kg/injection, schedule: Q04DX003 (ip), vehicle: Klucel (hydroxypropylcellulose) (HPC)): 104 % of control and 110 % of control
T/C (dose: 25.0 mg/kg/injection, schedule: Q04DX003 (ip), vehicle: saline): 100 % of control
T/C (dose: 25.0 mg/kg/injection, schedule: Q04DX003 (ip), vehicle: water): 101 % of control
T/C (dose: 25.88 mg/kg/injection, schedule: Q01DX Z (ip), vehicle: carboxymethylcellulose (CMC)): 98 % of control
T/C (dose: 27.0 mg/kg/injection, schedule: Q01DX Z (ip), vehicle: carboxymethylcellulose (CMC)): 108 % of control
T/C (dose: 27.0 mg/kg/injection, schedule: Q01DX Z (ip), vehicle: methylcellulose (MC)): 105 % of control
T/C (dose: 30.0 mg/kg/injection, schedule: Q01DX Z (ip), vehicle: other): 103 % of control
T/C (dose: 32.35 mg/kg/injection, schedule: Q01DX Z (ip), vehicle: carboxymethylcellulose (CMC)): 102 % of control and 103 % of control
T/C (dose: 39.0 mg/kg/injection, schedule: Q01DX Z (ip), vehicle: methylcellulose (MC)): 164 % of control
T/C (dose: 40.0 mg/kg/injection, schedule: Q01DX Z (ip), vehicle: carboxymethylcellulose (CMC)): 114 % of control and 122 % of control and 123 % of control
T/C (dose: 40.0 mg/kg/injection, schedule: Q01DX Z (ip), vehicle: methylcellulose (MC)): 100 % of control
T/C (dose: 43.13 mg/kg/injection, schedule: Q01DX Z (ip), vehicle: carboxymethylcellulose (CMC)): 113 % of control
T/C (dose: 48.0 mg/kg/injection, schedule: Q01DX Z (im), vehicle: saline): 108 % of control
T/C (dose: 48.0 mg/kg/injection, schedule: Q01DX Z (sc), vehicle: saline): 101 % of control
T/C (dose: 50.0 mg/kg/injection, schedule: Q01DX005 (ip), vehicle: Klucel (hydroxypropylcellulose) (HPC)): 114 % of control
T/C (dose: 50.0 mg/kg/injection, schedule: Q01DX005 (ip), vehicle: water): 121 % of control
T/C (dose: 50.0 mg/kg/injection, schedule: Q01DX Z (ip), vehicle: carboxymethylcellulose (CMC)): 121 % of control
T/C (dose: 50.0 mg/kg/injection, schedule: Q04DX003 (ip), vehicle: Klucel (hydroxypropylcellulose) (HPC)): 102 % of control and 119 % of control
T/C (dose: 50.0 mg/kg/injection, schedule: Q04DX003 (ip), vehicle: saline): 102 % of control
T/C (dose: 50.0 mg/kg/injection, schedule: Q04DX003 (ip), vehicle: water): 106 % of control
T/C (dose: 58.0 mg/kg/injection, schedule: Q01DX Z (ip), vehicle: methylcellulose (MC)): 222 % of control
T/C (dose: 60.0 mg/kg/injection, schedule: Q01DX Z (ip), vehicle: methylcellulose (MC)): 104 % of control
T/C (dose: 75.0 mg/kg/injection, schedule: Q01DX001 (ip), vehicle: Klucel (hydroxypropylcellulose) (HPC)): 117 % of control
T/C (dose: 75.0 mg/kg/injection, schedule: Q01DX001 (ip), vehicle: saline): 96 % of control and 101 % of control
T/C (dose: 75.0 mg/kg/injection, schedule: Q01DX001 (ip), vehicle: water): 108 % of control
T/C (dose: 90.0 mg/kg/injection, schedule: Q01DX Z (ip), vehicle: methylcellulose (MC)): 100 % of control
T/C (dose: 96.0 mg/kg/injection, schedule: Q01DX Z (im), vehicle: carboxymethylcellulose (CMC)): 111 % of control
T/C (dose: 96.0 mg/kg/injection, schedule: Q01DX Z (im), vehicle: saline): 120 % of control
T/C (dose: 96.0 mg/kg/injection, schedule: Q01DX Z (ip), vehicle: carboxymethylcellulose (CMC)): 111 % of control
T/C (dose: 96.0 mg/kg/injection, schedule: Q01DX Z (ip), vehicle: saline): 165 % of control
T/C (dose: 96.0 mg/kg/injection, schedule: Q01DX Z (sc), vehicle: saline): 115 % of control
T/C (dose: 100.0 mg/kg/injection, schedule: Q01DX001 (ip), vehicle: saline): 104 % of control
T/C (dose: 100.0 mg/kg/injection, schedule: Q01DX005 (ip), vehicle: water): 157 % of control
T/C (dose: 100.0 mg/kg/injection, schedule: Q01DX010 (ip), vehicle: saline): 151 % of control and 166 % of control
T/C (dose: 100.0 mg/kg/injection, schedule: Q04DX003 (ip), vehicle: saline): 93 % of control and 116 % of control
T/C (dose: 129.4 mg/kg/injection, schedule: Q01DX Z (ip), vehicle: carboxymethylcellulose (CMC)): 87 % of control
T/C (dose: 140.0 mg/kg/injection, schedule: Q01DX Z (sc), vehicle: carboxymethylcellulose (CMC)): 122 % of control
T/C (dose: 145.0 mg/kg/injection, schedule: Q01DX001 (ip), vehicle: water): 116 % of control
T/C (dose: 150.0 mg/kg/injection, schedule: Q01DX001 (ip), vehicle: Klucel (hydroxypropylcellulose) (HPC)): 107 % of control
T/C (dose: 150.0 mg/kg/injection, schedule: Q01DX001 (ip), vehicle: saline): 94 % of control and 104 % of control
T/C (dose: 150.0 mg/kg/injection, schedule: Q01DX001 (ip), vehicle: water): 120 % of control
T/C (dose: 200.0 mg/kg/injection, schedule: Q01DX001 (ip), vehicle: saline): 110 % of control
T/C (dose: 200.0 mg/kg/injection, schedule: Q01DX009 (ip), vehicle: saline): 105 % of control and 110 % of control
T/C (dose: 200.0 mg/kg/injection, schedule: Q01DX010 (ip), vehicle: saline): 93 % of control and 103 % of control
T/C (dose: 200.0 mg/kg/injection, schedule: Q01DX Z (oral), vehicle: saline): 104 % of control
T/C (dose: 200.0 mg/kg/injection, schedule: Q04DX003 (ip), vehicle: Klucel (hydroxypropylcellulose) (HPC)): 176 % of control and 180 % of control
T/C (dose: 200.0 mg/kg/injection, schedule: Q04DX003 (ip), vehicle: saline): 117 % of control
T/C (dose: 215.0 mg/kg/injection, schedule: Q01DX Z (im), vehicle: carboxymethylcellulose (CMC)): 122 % of control
T/C (dose: 215.0 mg/kg/injection, schedule: Q01DX Z (sc), vehicle: carboxymethylcellulose (CMC)): 111 % of control
T/C (dose: 217.0 mg/kg/injection, schedule: Q01DX001 (ip), vehicle: water): 121 % of control
T/C (dose: 300.0 mg/kg/injection, schedule: Q01DX001 (ip), vehicle: saline): 105 % of control
T/C (dose: 300.0 mg/kg/injection, schedule: Q01DX001 (ip), vehicle: water): 121 % of control
T/C (dose: 320.0 mg/kg/injection, schedule: Q01DX Z (im), vehicle: carboxymethylcellulose (CMC)): 100 % of control and 114 % of control
T/C (dose: 320.0 mg/kg/injection, schedule: Q01DX Z (sc), vehicle: carboxymethylcellulose (CMC)): 102 % of control
T/C (dose: 400.0 mg/kg/injection, schedule: Q01DX001 (ip), vehicle: saline): 188 % of control
T/C (dose: 480.0 mg/kg/injection, schedule: Q01DX Z (im), vehicle: carboxymethylcellulose (CMC)): 90 % of control

CC(=O)Nc1[nH]ncc1C(N)=O
T/C (dose: 50.0 mg/kg/injection, schedule: Q01DX001 (ip), vehicle: Klucel (hydroxypropylcellulose) (HPC)): 100 % of control
T/C (dose: 100.0 mg/kg/injection, schedule: Q01DX001 (ip), vehicle: Klucel (hydroxypropylcellulose) (HPC)): 100 % of control
T/C (dose: 200.0 mg/kg/injection, schedule: Q01DX001 (ip), vehicle: Klucel (hydroxypropylcellulose) (HPC)): 98 % of control
